Data on one compound can be found in patent US20180256560A1 (priority 2015, published 2018).

Values joined by “and” are separate entries in the source; they are usually repeats but may differ in a detail not shown here. Equal values may be shown once. Read-outs that look alike come from different tables or passages of the source. Where only a bound is given, the exact number is not on record here.

For data set [1] the following is noted: cited from earlier work.
The conditions of data set [2]: 20 mg/ml nicotine in the formulation; FIGS. 4.4-4.6.
Protocol: Test solutions were prepared from ethanol, de-ionized water, a 20% stock solution of glycerol in de-ionized water, a 5 M NaCl solution and nicotine solutions of 40 mg/ml in either ethanol or de-ionized water. Solutions were analysed for droplet size distributions generated by an eFlow© rapid nebulizer device (PARI GmbH) which was placed at 90° to, and 15 cm from, the laser light path of a Malvern Spraytec particle sizer. A Malvern Spraytec Real Time Droplet Sizer and an Alberta Idealized Throat coupled to an Andersen Cascade Impactor (AIT/ACI) were also used to determine droplet size.
The surface to volume ratio of the droplets was calculated using the following formulae:
Test in data set [3]: not given
This is another data set of the same source.

Test in data set [4]: not given
The source holds these as a separate data set.

As for `CN1CCC[C@H]1c1cccnc1` [nicotine, (S)-3-(1-Methyl-2-pyrrolidinyl)pyridine], the “enhancement of gaseous release of nicotine from the solution by salt” value (1M NaCl) is “two-fold”. In addition, the “reduction of nicotine gas release by ethanol (dynamic)” value (10% ethanol, FIG. 3.4) turned out to be 90%. In addition, for the setting “decreasing pH from 8 to 3, FIG. 3.2”, the “effect of pH on nicotine gas release (dynamic)” value is listed as “dramatically decreases”. Under “increasing NaCl from 0 to 1M, FIG. 3.3”, the “effect of NaCl on nicotine release in gas form (dynamic)” value was “dramatically increases”. In data set [1] (25% of the average 1 mg of nicotine delivered by a cigarette), the “nicotine in 5 litres of arterial blood” value is 30 to 60 ng/mL. Besides, in data set [1] (smokers, typical), the “time to peak nicotine concentration in arterial blood” value was 3 to 5 min. For the same compound, the “effect of adding nicotine on droplet size” value in data set [2] is listed as “no major shift in droplet size”. For the same compound, the nicotine molecules uncharged entry is “approximately 10%” in data set [3] (pH 7); > 99% and ~100% in data set [3] (pH 10). In addition, in data set [4] (20 mg/ml nicotine, 1% ethanol, FIG. 2.3), the “reduction of nicotine in gas form at equilibrium by ethanol” value amounted to 90%. Moreover, the “effect of pH on amount of nicotine in gas form at equilibrium” value in data set [4] (decreasing pH from 10 to 3, FIG. 2.2) is reported as “dramatically decreases”. For the same compound, in data set [4] (higher salt concentrations), the “effect of metal salt on amount of gaseous nicotine at equilibrium” value is recorded as “larger amounts of gaseous nicotine”.
